The source of these data is patent US10287301B2 (Achillion Pharmaceuticals, Inc., priority 2015, dated 2019).

Like-named read-outs stand apart in the source and are kept apart here.

This assay deals with Human Factor D (Homo sapiens (Human), UniProt P00746). Kind of assay: Human Factor D Assay. It counts as biochemical. In outline:
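Factor D (from human serum) 80 nM final + cpd, 5 min RT, 50 mM Tris/1M NaCl pH 7.5; add Z-L-Lys-SBzl 100 μM and DTNB 100 μM final. IC50 by nonlinear fit of rates vs [cpd].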

Setting [1] is: Human Factor D 80 nM, substrate Z-L-Lys-SBzl, read-out: IC50.
Setting [2] is: Human Factor D assay of Example 8, Table 2, read-out: IC50.
[3] abbreviates: Table 3, Human Factor D 80 nM, substrate Z-L-Lys-SBzl, read-out: IC50 (Stars).
Where [4] appears, read: Human Factor D, Table 3, read-out: IC50.

Chain of Human Factor D (P00746 26-253): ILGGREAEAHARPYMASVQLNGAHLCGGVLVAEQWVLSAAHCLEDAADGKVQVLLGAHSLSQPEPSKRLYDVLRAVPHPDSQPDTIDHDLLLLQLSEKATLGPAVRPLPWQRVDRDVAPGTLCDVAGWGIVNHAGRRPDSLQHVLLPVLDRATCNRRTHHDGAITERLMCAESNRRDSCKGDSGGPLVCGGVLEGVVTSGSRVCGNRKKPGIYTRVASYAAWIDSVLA

In the case of `NC(=O)c1nn(CC(=O)N2C[C@H](F)C[C@H]2C(=O)Nc2ccc3cn[nH]c3c2)c2ccc(-c3ccnnc3)cc12` [Compound 86, 1-(2-((2S,4R)-2-(1H-indazol-6-ylcarbamoyl)-4-fluoropyrrolidin-1-yl)-2-oxoethyl)-5-(pyridazin-4-yl)-1H-indazole-3-carboxamide], the IC50 under setting [1] is > 10000 nM.

As for `CC(=O)c1nn(CC(=O)N2C[C@H](F)C[C@H]2C(=O)Nc2cccc(Br)n2)c2ccc(-c3cnc4c(c3)ncn4C)cc12` [Compound 241, (2S,4R)-1-(2-(3-acetyl-5-(3-methyl-3H-imidazo[4,5-b]pyridin-6-yl)-1H-indazol-1-yl)acetyl)-N-(6-bromopyridin-2-yl)-4-fluoropyrrolidine-2-carboxamide], under setting [2], the IC50 was < 1000 nM.

For `COCCNc1ncc(-c2ccc3c(c2)c(C(C)=O)cn3CC(=O)N2C[C@H](F)C[C@H]2C(=O)Nc2cccc(-c3ccccc3Cl)c2F)cn1` [Compound 187, (2S,4R)-1-(2-(3-acetyl-5-(2-(2-methoxyethylamino)pyrimidin-5-yl)-1H-indol-1-yl)acetyl)-N-(2′-chloro-2-fluorobiphenyl-3-yl)-4-fluoropyrrolidine-2-carboxamide], the IC50 under setting [1] was < 1000 nM.

As to `CC(=O)c1cn(CC(=O)N2C[C@H](F)C[C@H]2C(=O)Nc2n[nH]c(C)c2-c2ccccc2)c2ccc(-c3ccnnc3)cc12` [Compound 169, (2S,4R)-1-(2-(3-acetyl-5-(pyridazin-4-yl)-1H-indol-1-yl)acetyl)-4-fluoro-N-(5-methyl-4-phenyl-1H-pyrazol-3-yl)pyrrolidine-2-carboxamide], the IC50 under setting [1] was < 1000 nM.

Turning to `CC(=O)c1nn(CC(=O)N2[C@H](C(=O)Nc3cccc(Br)n3)C[C@@]3(C)C[C@@H]23)c2ccc(-c3cnc(N)nc3)cc12` [Compound 480, (1R,3S,5R)-2-(2-(3-Acetyl-5-(2-aminopyrimidin-5-yl)-1H-indazol-1-yl)acetyl)-N-(6-bromopyridin-2-yl)-5-methyl-2-azabicyclo[3.1.0]hexane-3-carboxamide], the IC50 under setting [3] was < 1000 nM.

As for `NC(=O)c1nn(CC(=O)N2C[C@H](F)C[C@H]2C(=O)N[C@H]2CCCC[C@@H]2O)c2ccc(-c3ccnnc3)cc12` [Compound 172, 1-(2-((2S,4R)-4-fluoro-2-((1S,2S)-2-hydroxycyclohexylcarbamoyl)pyrrolidin-1-yl)-2-oxoethyl)-5-(pyridazin-4-yl)-1H-indazole-3-carboxamide], under setting [1], the IC50 was > 10000 nM.

As for `CC(=O)c1cn(CC(=O)N2C[C@H](F)C[C@H]2C(=O)Nc2cccc(-c3ccccc3Cl)c2F)c2ccc(N3CCN(S(C)(=O)=O)CC3)cc12` [Compound 33, (2S,4R)-1-(2-(3-Acetyl-5-(4-(methylsulfonyl)piperazin-1-yl)-1H-indol-1-yl)acetyl)-N-(2′-chloro-2-fluoro-[1,1′-biphenyl]-3-yl)-4-fluoropyrrolidine-2-carboxamide], the IC50 under setting [1] was < 1000 nM.

Turning to `COc1ncc(-c2ccc3c(c2)c(C(C)=O)nn3CC(=O)N2C[C@H]3C[C@H]3[C@H]2C(=O)Nc2nc(Br)ccc2C2CC2)cn1` [Compound 641, (1R,2S,5S)-3-(2-(3-Acetyl-5-(2-methoxypyrimidin-5-yl)-1H-indazol-1-yl)acetyl)-N-(6-bromo-3-cyclopropylpyridin-2-yl)-3-azabicyclo[3.1.0]hexane-2-carboxamide], the IC50 under setting [4] is < 1000 nM.

Take `CC(=O)c1cn(CC(=O)N2C[C@H](F)C[C@H]2C(=O)Nc2cccc3c2CN(c2ccccn2)C3)c2ccc(-c3ccnnc3)cc12` [Compound 105, (2S,4R)-1-(2-(3-acetyl-5-(pyridazin-4-yl)-1H-indol-1-yl)acetyl)-4-fluoro-N-(2-(pyridin-2-yl)isoindolin-4-yl)pyrrolidine-2-carboxamide]: the IC50 under setting [1] was > 10000 nM.

In the case of `CC(=O)c1nn(CC(=O)N2C[C@H](F)C[C@H]2C(=O)Nc2cccc(OC(F)F)c2F)c2ccc(-c3cnc4ccnn4c3)cc12` [Compound 282, (2S,4R)-1-(2-(3-acetyl-5-(pyrazolo[1,5-a]pyrimidin-6-yl)-1H-indazol-1-yl)acetyl)-N-(3-(difluoromethoxy)-2-fluorophenyl)-4-fluoropyrrolidine-2-carboxamide], the IC50 under setting [2] was < 1000 nM.

Consider `CC(=O)c1nn(CC(=O)N2C[C@H](F)C[C@H]2C(=O)Nc2nc(Br)c(C)s2)c2ccc(-c3cnc(C)nc3)cc12` [Compound 449, (2S,4R)-1-(2-(3-Acetyl-5-(2-methylpyrimidin-5-yl)-1H-indazol-1-yl)acetyl)-N-(4-bromo-5-methylthiazol-2-yl)-4-fluoropyrrolidine-2-carboxamide], for which the IC50 under setting [3] is < 1000 nM.

With `CO[C@H]1[C@@H](C(=O)Nc2cccc(Br)n2)N(C(=O)Cn2nc(C(C)=O)c3cc(-c4cnc(C)nc4)ccc32)C[C@@H]1F` [Compound 393, (2S,3S,4S)-1-(2-(3-Acetyl-5-(2-methylpyrimidin-5-yl)-1H-indazol-1-yl)acetyl)-N-(6-bromopyridin-2-yl)-4-fluoro-3-methoxypyrrolidine-2-carboxamide], the IC50 under setting [3] is < 1000 nM.

As to `CC(=O)c1nn(CC(=O)N2C[C@H](F)C[C@H]2C(=O)Nc2cccc(Br)n2)c2ccc(-c3cnc4cccnn34)cc12` [Compound 302, (2S,4R)-1-(2-(3-acetyl-5-(imidazo[1,2-b]pyridazin-3-yl)-1H-indazol-1-yl)acetyl)-N-(6-bromopyridin-2-yl)-4-fluoropyrrolidine-2-carboxamide], the IC50 under setting [2] was < 1000 nM.

In the case of `CC(=O)c1cn(CC(=O)N2[C@@H]3C[C@@H]3C[C@H]2C(=O)NCc2cccc(Cl)c2F)c2ccc(-c3cnc(C)nc3)cc12` [Compound 134, (1R,3S,5R)-2-(2-(3-acetyl-5-(2-methylpyrimidin-5-yl)-1H-indol-1-yl)acetyl)-N-(3-chloro-2-fluorobenzyl)-2-azabicyclo[3.1.0] hexane-3-carboxamide], the IC50 under setting [1] was < 1000 nM.

With `CC(=O)c1nn(CC(=O)N2C[C@H](F)C[C@H]2C(=O)Nc2nc(Br)ccc2C2CC2)c2ccc(-c3cnc(C)nc3)cc12` [Compound 538, (2S,4R)-1-(2-(3-Acetyl-5-(2-methylpyrimidin-5-yl)-1H-indazol-1-yl)acetyl)-N-(6-bromo-3-cyclopropylpyridin-2-yl)-4-fluoropyrrolidine-2-carboxamide], under setting [3], the IC50 was < 1000 nM.

Consider `COCCNc1ncc(-c2ccc3c(c2)c(C(C)=O)nn3CC(=O)N2C[C@H](F)C[C@H]2C(=O)Nc2cccc(Br)n2)cn1` [Compound 269, (2S,4R)-1-(2-(3-acetyl-5-(2-(2-methoxyethylamino)pyrimidin-5-yl)-1H-indazol-1-yl)acetyl)-N-(6-bromopyridin-2-yl)-4-fluoropyrrolidine-2-carboxamide], for which, under setting [2], the IC50 was < 1000 nM.

As for `COC[C@@]1(F)C[C@@H](C(=O)Nc2cccc(Br)n2)N(C(=O)Cn2nc(C(C)=O)c3cc(-c4cnc(C)nc4)ccc32)C1` [Compound 419, (2S,4R)-1-(2-(3-Acetyl-5-(2-methylpyrimidin-5-yl)-1H-indazol-1-yl)acetyl)-N-(6-bromopyridin-2-yl)-4-fluoro-4-(methoxymethyl)pyrrolidine-2-carboxamide], the IC50 under setting [3] was < 1000 nM.

For `CC(=O)c1cn(CC(=O)N2[C@@H]3C[C@@H]3C[C@H]2C(=O)Nc2cccc(-c3ccccc3Cl)c2F)c2ccc(-c3cncnc3)cc12` [Compound 15, (1R,3S,5R)-2-(2-(3-acetyl-5-(pyrimidin-5-yl)-1H-indol-1-yl)acetyl)-N-(2′-chloro-2-fluorobiphenyl-3-yl)-2-azabicyclo[3.1.0] hexane-3-carboxamide], the IC50 under setting [1] was < 1000 nM.

Consider `CC(=O)c1nn(CC(=O)N2[C@@H]3C[C@@H]3C[C@H]2C(=O)Nc2cccc(Br)n2)c2ccc(-c3cnc(N)nc3)cc12` [Compound 364, (1R,3S,5R)-2-(2-(3-Acetyl-5-(2-aminopyrimidin-5-yl)-1H-indazol-1-yl)acetyl)-N-(6-bromopyridin-2-yl)-2-azabicyclo[3.1.0]hexane-3-carboxamide], for which, under setting [3], the IC50 is < 1000 nM.

In the case of `CC(=O)c1nn(CC(=O)N2C[C@H](F)C[C@H]2C(=O)Nc2cc(C)n(CC(F)(F)F)n2)c2ccc(-c3cnc(C)nc3)cc12` [Compound 429, (2S,4R)-1-(2-(3-Acetyl-5-(2-methylpyrimidin-5-yl)-1H-indazol-1-yl)acetyl)-N-(5-methyl-1-(2,2,2-trifluoroethyl)-1H-pyrazol-3-yl)-4-fluoropyrrolidine-2-carboxamide], the IC50 under setting [3] was < 1000 nM.

For the molecule `CC(=O)c1cn(CC(=O)N2C[C@H](F)C[C@H]2C(=O)Nc2cccc(Br)n2)c2ccc(-c3cnc(O[C@@H]4CO[C@H]5[C@@H]4OC[C@H]5O)nc3)cc12` [Compound 334, (2S,4R)-1-(2-(3-acetyl-5-(2-(((3R,3aR,6R,6aR)-6-hydroxyhexahydrofuro [3,2-b]furan-3-yl)oxy)pyrimidin-5-yl)-1H-indol-1-yl)acetyl)-N-(6-bromopyridin-2-yl)-4-fluoropyrrolidine-2-carboxamide], the IC50 under setting [3] is < 1000 nM.

As to `CC(=O)c1nn(CC(=O)N2CCCC[C@H]2C(=O)Nc2cccc(Br)n2)c2ccc(-c3cnc(C)nc3)cc12` [Compound 593, (S)-1-(2-(3-Acetyl-5-(2-methylpyrimidin-5-yl)-1H-indazol-1-yl)acetyl)-N-(6-bromopyridin-2-yl)piperidine-2-carboxamide], under setting [4], the IC50 is < 1000 nM.

`COc1ncc(-c2ccc3c(c2)c(C(C)=O)cn3CC(=O)N2[C@@H]3C[C@@H]3C[C@H]2C(=O)Nc2cccc(Br)n2)cn1` [Compound 81, (1R,3S,5R)-2-(2-(3-acetyl-5-(2-methoxypyrimidin-5-yl)-1H-indol-1-yl)acetyl)-N-(6-bromopyridin-2-yl)-2-azabicyclo[3.1.0] hexane-3-carboxamide]: under setting [1], the IC50 was < 1000 nM.

`CC(=O)c1nn(CC(=O)N2C[C@H](F)C[C@H]2C(=O)NCc2cccc(Cl)c2F)c2ccc(-c3cnc4ccnn4c3)cc12` [Compound 236, (2S,4R)-1-(2-(3-acetyl-5-(pyrazolo[1,5-a]pyrimidin-6-yl)-1H-indazol-1-yl)acetyl)-N-(3-chloro-2-fluorobenzyl)-4-fluoropyrrolidine-2-carboxamide]: the IC50 under setting [2] is < 1000 nM.

As usually defined, the IC50 is the concentration that inhibits the measured activity by half.
